In patent publication US8022043B2, “Ceramide derivatives as modulators of immunity and autoimmunity” (Albert Einstein College of Medicine of Yeshiva University, priority 2004, dated 2011):

Tests used:
Format in all cases: cell-based
[1] = tested on: Bulk splenocytes from C57BL/6 mice; assay: Splenocyte proliferation assay (3H-thymidine incorporation); settings: concentration giving 50% maximal response in proliferation of splenocyte cultures, 3H-thymidine incorporation
Description: The results were obtained using a splenocyte proliferation assay according to the following procedure: Bulk splenocytes from C57BL/6 mice were plated at 300,000 per well in 96-well flat-bottom tissue culture plates with the indicated ceramide-like glycolipid diluted in complete medium to the concentrations shown. After 48 h at 37° C., the plate wells were pulsed with 20 microliters of medium containing 50 microCi/ml ^3H-thymidine and incubated for a further 18 h. Cell proliferation was estimated by harvesting pulsed cells onto 96-well filtermats and scintillation counting on a 1450 Microbeta Trilux instrument (Wallac/Perkin Elmer, Boston, Mass.).

[2] = tested on: Bulk splenocytes from C57BL/6 mice; assay: Cytokine response of splenocyte cultures (IL-4 and IFNγ ELISA); settings: 500 nM glycolipid, 48 hours; for Cytokine Response IFNγ / Cytokine Response IL-4: culture supernatant ELISA, ND = below the reliable level for detection
Description: The cytokine response reported in Table 1 and FIG. 5C was determined by the following procedure: Bulk splenocytes from C57BL/6 mice were plated at 300,000 per well in 96-well flat-bottom tissue culture plates with ceramide-like glycolipids diluted to a concentration of 500 nM in 200 microliters complete medium. After 48 h at 37° C., 150 microliters of supernatant was removed for cytokine measurements. Supernatant levels of IL-4, and IFNγ were measured by standard enzyme-linked immunosorbent assay (ELISA), using capture and biotinylated detection antibody pairs (clones 11B11/BVD6-24G2-biotin, and R4-6A2/XMG1.2-biotin, respectively, from BD Pharmingen, San Diego, Calif.). […] Standards for IL-4 and IFNγ were from Peprotech (Rocky Hill, N.J.).

iNKT cells = assay: In vitro cytokine modulation, murine cell assay system; settings: for in vitro activity at modulating cytokines: murine cell assay system; for IFNγ induction: DB03-3: in some murine strains
Description: The term iNKT cells, as used herein, mean the specific subset of CD1d-dependent T cells that expresses the invariant TCRα chain rearrangement consisting of Vα14-Jα18 in mice, and Vα24-Jα18 in humans. These cells are uniformly reactive to α-galactosylceramides presented by CD1d. These cells are also referred to as “Type 1” NKT cells, and the distinction between the different types of NKT cells and the nomenclature relating to this are summarized in the publication by Godfrey et al., Nat Rev Immunol. 2004 March; 4(3):231-7. Methods for determining cytokine production by iNKT cells in response to CD1d-presented glycolipids for determination of strong or weak agonist activity are described in Yu K O A, Im J S, Molano A, Dutronc Y, Illarionov P A, Forestier C, Fujiwara N, Arias I, Miyake S, Yamamura T, Chang Y-T, Besra G S, Porcelli S A, Modulation of CD1d-restricted NKT cell responses using N-acyl variants of α-galactosylceramides, Proc. Nat. Acad. Sci. (USA), 102:3383-8 (2005), see also Godfrey D I et al., Nat Rev Immunol. 2004 March; 4(3):231-7.

NK T cells = assay: NK T cell activation screens (Example, FIG. 5 and Table 1); settings: see Example
Description: Using these methods, we produced more than 60 novel amino substituted analogues of KRN7000. These were screened in a functional assay that assessed the ability of the compounds to activate NK T cell hybridomas in the presence of various types of cells expressing CD1d, or in the presence of recombinant CD1d proteins bound to the tissue culture plate surface (FIG. 5).

Structure (SMILES) | EC50 [1] [nM] | IL-4/IFNγ ratio divided by this ratio for DB01-1 (value in parentheses) [2] | ratio IL-4/IFNγ [2] | Cytokine Response IFNγ [2] [ng/mL] | Cytokine Response IL-4 [2] [ng/mL] | in vitro activity at modulating cytokines (iNKT cells) | effectiveness of compound (NK T cells) | IL-4 induction (iNKT cells; in vitro) | IFNγ induction (iNKT cells; in vitro) | IL-2 induction (iNKT cells; in vitro)
CCCCCCCCCCCCCC[C@@H](O)[C@@H](O)[C@H](CO[C@H]1O[C@H](CO)[C@H](O)[C@H](O)[C@H]1O)NC(=O)Cc1ccc(C)cc1 [YTCO3-51] | 63.8 | 0.2 | 0.006 | 9.03 | 0.05 |  |  |  |  | 
CCCCCCCCCCCCCC[C@@H](O)[C@@H](O)[C@H](CO[C@H]1O[C@H](CO)[C@H](O)[C@H](O)[C@H]1O)N=[N+]=[N-] [DB03-7] |  |  |  |  |  | show in vitro activity |  |  |  | 
CCCCCCCCCCCCCC[C@@H](O)[C@@H](O)[C@H](CO[C@H]1O[C@H](CO)[C@H](O)[C@H](O)[C@H]1O)NC(=O)C(C)(c1ccccc1)c1ccccc1 [YTCO3-58] | 51.8 | 0.9 | 0.024 | 8.64 | 0.21 |  |  |  |  | 
CCCCCCCCCCCCCC[C@@H](O)[C@@H](O)[C@H](CO[C@H]1O[C@H](CO)[C@H](O)[C@H](O)[C@H]1O)NC(=O)C(OC)c1ccccc1 (some centres unmarked) [YTCO3-48] | 86.9 | 0.6 | 0.016 | 12.56 | 0.20 |  |  |  |  | 
CCCCCCCCCCCCCC[C@@H](O)[C@@H](O)[C@H](COC1OC(CO)C(O)C(O)C1O)NC(=O)Cc1ccc(OC)cc1 (some centres unmarked) [YTC03-33] |  |  |  |  |  |  | Particularly effective |  |  | 
CCCCCCCCCCCCCC[C@@H](O)[C@@H](O)[C@H](CO[C@H]1O[C@H](CO)[C@H](O)[C@H](O)[C@H]1O)NC(=O)C1(c2ccccc2)CCCC1 [YTCO3-46] | 4.8 | 1.0 | 0.026 | 8.52 | 0.22 |  | Particularly effective |  |  | 
CCCCCCCCCCCCCC[C@@H](O)[C@@H](O)[C@H](CO[C@H]1O[C@H](CO)[C@H](O)[C@H](O)[C@H]1O)NC(=O)c1ccc(OCCCCCCC)cc1 [YTCO3-53] | 38 | 1.2 | 0.030 | 0.67 | 0.02 |  |  |  |  | 
CCCCCCCCCCCCCC[C@@H](O)[C@@H](O)[C@H](CO[C@H]1O[C@H](CO)[C@H](O)[C@H](O)[C@H]1O)NC(=O)C(c1ccccc1)C(C)CC (some centres unmarked) [YTCO3-60] | 10.9 | 0.8 | 0.022 | 8.18 | 0.18 |  | Particularly effective |  |  | 
CCCCCCCCCCCCCCC(O)C(O)C(COC1OC(CO)C(O)C(O)C1O)NC(=O)Cc1ccccc1OC (centres unmarked) [YTCO3-43] | 86.9 | 0.7 | 0.018 | 19.50 | 0.35 |  |  |  |  | 
CCCCCCCCCCCCCC[C@@H](O)[C@@H](O)[C@H](CO[C@H]1O[C@H](CO)[C@H](O)[C@H](O)[C@H]1O)NC(=O)C(c1ccccc1)C1CCCC1 (some centres unmarked) [YTCO3-50] | 5.4 | 0.3 | 0.007 | 9.47 | 0.07 |  | Particularly effective |  |  | 
CCCCCCCC/C=C\CCCCCCCCCC(=O)N[C@@H](COC1OC(CO)C(O)C(O)C1O)[C@H](O)[C@H](O)CCCCCCCCCCCCCC (some centres unmarked) [DB03-3] |  |  |  |  |  | show in vitro activity |  | good inducer of L-4 | strong inducer of IFNγ | 
CCCCCCCCCCCCCCC(O)C(O)C(COC1OC(CO)C(O)C(O)C1O)NC(=O)Cc1ccccc1Cl (centres unmarked) [YTCO3-45] | 222 | 1.6 | 0.041 | 15.26 | 0.63 |  |  |  |  | 
CCCCCCCCCCCCCCC(O)C(O)C(COC1OC(CO)C(O)C(O)C1O)NC(=O)C=Cc1ccccc1 (centres unmarked) [YTCO3-42] | > 2500 |  |  |  |  |  |  |  |  | 
CCCCCCCCCCCCCC[C@@H](O)[C@@H](O)[C@H](CO[C@H]1O[C@H](CO)[C@H](O)[C@H](O)[C@H]1O)NC(=O)Cc1cccc2ccccc12 [YTCO3-56] | 11.4 | 0.7 | 0.019 | 11.79 | 0.22 |  | Particularly effective |  |  | 
CCCCCCCCCCCCCCC(O)C(O)C(COC1OC(CO)C(O)C(O)C1O)NC(=O)Cc1ccc2c(c1)OCO2 (centres unmarked) [YTCO3-44] | 57.1 | 3.7 | 0.097 | 14.19 | 1.38 |  |  |  |  | 
CCCCCCCCCCCCCC[C@@H](O)[C@@H](O)[C@H](CO[C@H]1O[C@H](CO)[C@H](O)[C@H](O)[C@H]1O)NC(=O)Cc1c(F)cccc1Cl [YTCO3-49] | 57.1 | 1.1 | 0.028 | 4.57 | 0.13 |  |  |  |  | 
CCCCC/C=C\C/C=C\CCCCCCCC(=O)N[C@@H](COC1OC(CO)C(O)C(O)C1O)[C@H](O)[C@H](O)CCCCCCCCCCCCCC (some centres unmarked) [DB03-10] |  |  |  |  |  | show in vitro activity |  | strong inducers of IL-4 | moderate inducers of IFNγ | weak inducers of IL-2
CCCCCCCCCCCCCC[C@@H](O)[C@@H](O)[C@H](CO[C@H]1O[C@H](CO)[C@H](O)[C@H](O)[C@H]1O)NC(=O)Cc1ccc(Br)cc1 [YTCO3-47] | 7.5 | 0.4 | 0.011 | 19.63 | 0.21 |  | Particularly effective |  |  | 
CCCCCCCCCCCCCC[C@@H](O)[C@@H](O)[C@H](CO[C@H]1O[C@H](CO)[C@H](O)[C@H](O)[C@H]1O)NC(=O)Cc1cccc(C)c1 [YTCO3-52] | 17 | 0.7 | 0.019 | 10.25 | 0.19 |  |  |  |  | 
CCCCCCCCCCCCCCC(O)C(O)C(COC1OC(CO)C(O)C(O)C1O)NC(=O)CCCCCCCCCCC (centres unmarked) [YTC03-35] |  |  |  |  |  |  | Particularly effective |  |  | 
CCCCCCCCCCCCCC[C@@H](O)[C@@H](O)[C@H](CO[C@H]1O[C@H](CO)[C@H](O)[C@H](O)[C@H]1O)NC(=O)Cc1ccc(OCC)cc1 [YTCO3-59] | 0.1 | 309.4 | 8.045 | 0.22 | 1.77 |  | Particularly effective |  |  | 
CCCCCCCCCCCCCC[C@@H](O)[C@@H](O)[C@H](CO[C@H]1O[C@H](CO)[C@H](O)[C@H](O)[C@H]1O)NC(=O)C(CC)c1ccccc1 (some centres unmarked) [YTCO3-61] | 72.4 | 0.9 | 0.023 | 7.50 | 0.17 |  |  |  |  | 
CCCCCCCCCCCCCC[C@@H](O)[C@@H](O)[C@H](CO[C@H]1O[C@H](CO)[C@H](O)[C@H](O)[C@H]1O)NC(=O)[C@H](Cc1ccccc1)NC(=O)OC(C)(C)C [YTCO3-57] | 2190 |  |  |  |  |  |  |  |  | 
CCCCCCCCCCCCCCC(O)C(O)C(COC1OC(CO)C(O)C(O)C1O)NC(=O)CCCCC (centres unmarked) [YTC03-31] |  |  |  |  |  |  | Particularly effective |  |  | 
CCCCCCCCCCCCCC[C@@H](O)[C@@H](O)[C@H](CO[C@H]1O[C@H](CO)[C@H](O)[C@H](O)[C@H]1O)NC(=O)Cc1cc(OC)ccc1OC [YTCO3-54] | 17.2 | 0.4 | 0.011 | 10.39 | 0.11 |  |  |  |  | 
